The text below walks through data of ChEMBL document CHEMBL1201862, “PubChem BioAssay data set” (2004).

The EC50 is the midpoint of the concentration-response curve. What is called IC50 is the concentration at which inhibition is half-maximal. The AC50 is the concentration at which the activity in the assay is half-maximal.

The target in assay [1] is Beta-2 adrenergic receptor (Homo sapiens, UniProt P07550). In words: beta2AR agonists driving receptor internalization, dose response, cell-based, FAP fluorogen, flow cytometry, cherry pick 1 (AID 588763). It is filed as functional. Background: Flow cytometry measures light scatter and fluorescence of single cells or particles in a stream.
Sequence of Beta-2 adrenergic receptor (P07550 whole entry): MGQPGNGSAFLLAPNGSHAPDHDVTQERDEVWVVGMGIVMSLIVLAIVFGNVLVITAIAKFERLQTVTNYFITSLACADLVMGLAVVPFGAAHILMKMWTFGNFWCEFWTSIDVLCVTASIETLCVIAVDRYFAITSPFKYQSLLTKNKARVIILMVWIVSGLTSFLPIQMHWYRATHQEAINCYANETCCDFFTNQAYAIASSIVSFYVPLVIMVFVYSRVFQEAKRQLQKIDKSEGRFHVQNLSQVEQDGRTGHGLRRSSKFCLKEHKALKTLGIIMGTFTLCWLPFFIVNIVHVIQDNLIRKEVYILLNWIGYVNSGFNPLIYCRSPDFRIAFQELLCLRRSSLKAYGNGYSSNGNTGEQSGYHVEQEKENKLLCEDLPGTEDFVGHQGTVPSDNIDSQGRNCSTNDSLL
Assay [2] has as its system HEK293. Nature of the assay: cells. It is filed as functional, cell-based. Conditions: Homo sapiens.
Assay [3] concerns the target T1, Nuclear receptor subfamily 0 group B member 1 (Homo sapiens, UniProt P51843).
T1 sequence (P51843 whole entry): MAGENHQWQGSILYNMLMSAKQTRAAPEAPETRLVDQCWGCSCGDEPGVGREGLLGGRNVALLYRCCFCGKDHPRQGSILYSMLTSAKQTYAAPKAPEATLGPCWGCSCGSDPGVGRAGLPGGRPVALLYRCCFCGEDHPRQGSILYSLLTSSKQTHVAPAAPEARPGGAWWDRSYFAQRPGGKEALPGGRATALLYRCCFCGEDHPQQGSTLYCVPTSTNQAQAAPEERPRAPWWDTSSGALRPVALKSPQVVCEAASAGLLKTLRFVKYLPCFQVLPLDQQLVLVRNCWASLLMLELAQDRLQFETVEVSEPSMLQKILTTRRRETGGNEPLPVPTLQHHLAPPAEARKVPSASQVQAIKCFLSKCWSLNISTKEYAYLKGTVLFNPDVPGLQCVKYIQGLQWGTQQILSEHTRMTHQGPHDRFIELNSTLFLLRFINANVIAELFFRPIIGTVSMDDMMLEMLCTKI
Nature of the assay: Luminescence-based cell-based high throughput dose response assay for inhibitors of the orphan nuclear receptor subfamily 0, group B, member 1 (DAX1; NR0B1). [Related pubchem assays (depositor defined):AID504766, AID504790]. The format is functional.

Assay [4] concerns the target T2, Leucine aminopeptidase (Plasmodium falciparum 3D7, UniProt Q8IL11).
T2 sequence (Q8IL11 whole entry): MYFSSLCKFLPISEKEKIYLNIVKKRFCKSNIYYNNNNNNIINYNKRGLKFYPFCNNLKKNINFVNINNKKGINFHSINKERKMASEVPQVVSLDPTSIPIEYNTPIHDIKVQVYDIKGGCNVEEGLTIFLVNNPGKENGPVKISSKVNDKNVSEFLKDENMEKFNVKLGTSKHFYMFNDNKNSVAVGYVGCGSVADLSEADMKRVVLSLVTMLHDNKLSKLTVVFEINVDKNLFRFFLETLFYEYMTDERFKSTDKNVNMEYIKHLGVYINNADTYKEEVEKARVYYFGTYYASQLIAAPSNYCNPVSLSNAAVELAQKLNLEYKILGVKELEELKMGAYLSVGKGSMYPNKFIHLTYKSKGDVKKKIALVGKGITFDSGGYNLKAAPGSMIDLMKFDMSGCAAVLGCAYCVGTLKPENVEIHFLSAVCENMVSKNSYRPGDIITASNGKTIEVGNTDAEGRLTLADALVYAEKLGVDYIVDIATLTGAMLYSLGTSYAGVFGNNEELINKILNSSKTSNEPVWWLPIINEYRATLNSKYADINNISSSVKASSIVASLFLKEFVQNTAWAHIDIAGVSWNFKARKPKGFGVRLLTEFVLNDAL
In words: P. falciparum M17LAP inhibitors, primary screen, biochemical, fluorogenic H-Leu-NHMec substrate, 1536-well (AID 1619). The format is functional.

In assay [5] the target is Trypsin (Sus scrofa, UniProt P00761). Nature of the assay: porcine trypsin inhibitors, dose response, selectivity assay for Rce1 protease inhibitor project, biochemical, quenched peptide fluorescence, cherry-pick (AID 488789).
Sequence of Trypsin (P00761 whole entry): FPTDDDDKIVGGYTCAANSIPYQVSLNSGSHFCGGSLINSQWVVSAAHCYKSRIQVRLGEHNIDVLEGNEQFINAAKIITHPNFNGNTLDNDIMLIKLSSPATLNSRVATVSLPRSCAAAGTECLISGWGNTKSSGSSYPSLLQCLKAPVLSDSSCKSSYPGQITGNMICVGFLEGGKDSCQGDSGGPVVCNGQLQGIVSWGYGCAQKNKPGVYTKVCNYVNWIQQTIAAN
Assay [6] has as its target CAAX prenyl protease 2 (Homo sapiens, UniProt Q9Y256). In words: human Rce1 protease inhibitors, dose response, biochemical, yeast membranes, quenched-peptide fluorescence, cherry-pick (AID 588849).
Assay [7] has as its target T3, Cytochrome P450 1A2 (Homo sapiens, UniProt P05177).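 Further: PubChem cytochrome P450 panel assay, CYP1A2 panel member.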
T3 sequence (P05177 whole entry): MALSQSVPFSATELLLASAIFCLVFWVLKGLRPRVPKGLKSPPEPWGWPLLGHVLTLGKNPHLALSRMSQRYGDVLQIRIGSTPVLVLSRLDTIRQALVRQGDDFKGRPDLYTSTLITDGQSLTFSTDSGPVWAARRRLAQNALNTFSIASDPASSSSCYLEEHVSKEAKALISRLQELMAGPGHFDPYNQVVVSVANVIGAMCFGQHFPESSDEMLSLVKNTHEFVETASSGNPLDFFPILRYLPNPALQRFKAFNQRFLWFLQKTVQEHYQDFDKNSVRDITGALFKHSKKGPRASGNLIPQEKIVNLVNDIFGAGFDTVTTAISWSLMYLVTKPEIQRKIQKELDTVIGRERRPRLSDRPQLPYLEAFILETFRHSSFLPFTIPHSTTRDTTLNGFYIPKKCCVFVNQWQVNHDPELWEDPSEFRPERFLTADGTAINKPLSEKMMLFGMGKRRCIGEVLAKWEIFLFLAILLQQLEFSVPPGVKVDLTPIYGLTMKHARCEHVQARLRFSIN

Assay [8] concerns the target Cytochrome P450 2C9 (Homo sapiens, UniProt P11712).
Assay [9] relates to HEK293. In words: SAR Analysis of small molecule inhibitors of T-cell specific antigen receptor-induced NF-kB activation in a HEK-293T cell line using a luminescence assay - Set 2. [Related pubchem assays (depositor defined):AID435003, AID435012, AID489026]. The format is functional, cell-based. As to conditions: Homo sapiens.
In assay [10] the test system is HEK293. Nature of the assay: cytotoxicity in HEK293T NF-kB-Luc cells, SAR follow-up, cytotoxicity control for NF-kB activator project, cell-based, resazurin fluorescence (AID 493251). It is filed as functional. As to conditions: Homo sapiens, HEK293. For orientation: The colour change of resazurin is a common sign of viable cells or microbes.
Assay [11] deals with Jurkat. In words: SAR Analysis of small molecule inhibitors of T-cell specific antigen receptor-induced NF-kB activation in a Jurkat cell line using a luminescence assay - Set 2. [Related pubchem assays (depositor defined):AID435003, AID435012, AID465]. It is filed as functional, cell-based. As to conditions: Homo sapiens.
Assay [12] in a line: inhibitors of SNCA 5'UTR-driven reporter translation, confirmation, H4 neuroglioma cells, luminescence (AID 1988). It is filed as functional, cell-based.
Assay [13] concerns the target T4, Microphthalmia-associated transcription factor (Homo sapiens, UniProt O75030).
T4 sequence (O75030 whole entry): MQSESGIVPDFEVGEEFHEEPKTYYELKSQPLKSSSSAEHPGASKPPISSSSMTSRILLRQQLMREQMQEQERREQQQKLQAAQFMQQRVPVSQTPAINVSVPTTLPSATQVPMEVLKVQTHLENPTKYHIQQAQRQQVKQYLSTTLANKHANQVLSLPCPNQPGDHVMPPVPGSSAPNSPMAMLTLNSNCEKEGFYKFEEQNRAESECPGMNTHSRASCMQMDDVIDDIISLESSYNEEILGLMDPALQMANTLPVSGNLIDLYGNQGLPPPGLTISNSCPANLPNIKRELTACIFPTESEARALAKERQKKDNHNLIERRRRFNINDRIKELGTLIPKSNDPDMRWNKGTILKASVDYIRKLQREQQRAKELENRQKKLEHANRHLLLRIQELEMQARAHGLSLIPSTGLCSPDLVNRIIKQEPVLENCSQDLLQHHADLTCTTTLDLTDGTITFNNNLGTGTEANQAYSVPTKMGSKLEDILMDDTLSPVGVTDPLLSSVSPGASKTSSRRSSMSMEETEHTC
Nature of the assay: TRPM1 promoter luciferase signal decrease, dose response, MITF inhibitor project, cell-based, SK-MEL-5, cherry-picked, set 3 (AID 493073).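 Further: SK-MEL-5 melanoma cells with luciferase driven by the MITF target TRPM1 promoter.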 The format is functional.

Assay [14] in a line: Luminescence Cell-Based Dose Response HTS to Identify Inhibitors of 5'UTR Stem-Loop Driven Prion Protein mRNA Translation in H4 Neuroglioblastoma Cells. [Related pubchem assays: 1827 (Project Summary), 1813 (Primary HTS)]. The format is functional.
Assay [15] deals with Streptococcus. In words: Group A Streptococcus viability loss, dose response, counter-screen for streptokinase expression inhibitor project, luminescence, BacTiterGlo (AID 1915).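 Further: potency for reduction of bacterial viability or growth.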 The format is functional, organism-based. For orientation: Counterscreens check selectivity or assay interference.
Assay [16] is described as follows: control 3'UTR Renilla luciferase suppression, dose response, counter-screen for Shn3 inhibitor project, cell-based, Clone20-Shn3RL, cherry-picked (AID 624133). The format is functional.
Assay [17] relates to INS1. Nature of the assay: beta cell apoptosis inhibitors, cytokine rescue, dose response, luminescence, retest (AID 449756).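 Further: cell death triggered by IL-1 beta plus TNF-alpha plus IFN-gamma mixture; protective hits raise ATP signal compared with cytokine alone wells.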 The format is functional, cell-based. As to conditions: Rattus norvegicus.
Assay [18] deals with A-375. Nature of the assay: A375 melanoma cell viability reduction, dose response, counter-screen for MITF modulator project, cherry-pick samples, set 2 (AID 540335). It is filed as functional, cell-based. Conditions: Homo sapiens.
The target in assay [19] is Beta Lactamase (Pseudomonas aeruginosa, UniProt Q932Y6). In words: beta-lactamase reporter inhibitor potency, dose response, artefact control for TLR9-MyD88 binding inhibitor project, BLA reporter cells, FRET fluorescence (AID 588341).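 Further: cell based assay in CHO-K1 cells stably expressing beta-lactamase.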 It is filed as cell-based.
Sequence of Beta Lactamase (Q932Y6 whole entry): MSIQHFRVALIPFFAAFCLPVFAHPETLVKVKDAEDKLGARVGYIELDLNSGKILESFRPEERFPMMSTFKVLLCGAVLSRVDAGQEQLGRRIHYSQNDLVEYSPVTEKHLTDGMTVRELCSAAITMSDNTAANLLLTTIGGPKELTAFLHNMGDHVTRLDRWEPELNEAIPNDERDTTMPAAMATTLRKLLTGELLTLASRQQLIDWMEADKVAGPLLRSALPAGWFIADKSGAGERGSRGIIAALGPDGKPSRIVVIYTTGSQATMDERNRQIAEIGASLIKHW
The nature of assay [20]: HepG2 cell cytotoxicity, dose response, cytotoxicity control for Shn3 inhibitor project, CellTiter-Glo, cherry-picked (AID 624134). The format is functional, cell-based.
Assay [21] in a line: inhibitors of firefly luciferase expression or activity, dose response, H4 neuroglioma cells, luminescence (AID 1990). The format is functional, cell-based.
The target in assay [22] is T5, Streptokinase A (Streptococcus pyogenes serotype M1, UniProt P10520).
T5 sequence (P10520 whole entry): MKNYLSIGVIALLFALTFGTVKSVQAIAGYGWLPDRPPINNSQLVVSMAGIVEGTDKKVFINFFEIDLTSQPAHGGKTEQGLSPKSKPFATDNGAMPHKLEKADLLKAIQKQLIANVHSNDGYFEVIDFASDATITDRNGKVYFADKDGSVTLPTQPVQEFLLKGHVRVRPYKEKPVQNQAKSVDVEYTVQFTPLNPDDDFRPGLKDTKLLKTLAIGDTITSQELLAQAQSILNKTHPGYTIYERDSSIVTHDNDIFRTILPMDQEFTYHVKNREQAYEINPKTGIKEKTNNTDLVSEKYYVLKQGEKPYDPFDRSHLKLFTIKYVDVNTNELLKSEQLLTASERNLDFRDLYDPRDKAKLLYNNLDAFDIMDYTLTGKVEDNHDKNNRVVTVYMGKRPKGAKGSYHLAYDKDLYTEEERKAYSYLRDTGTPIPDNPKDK
In words: S. pyogenes streptokinase expression inhibitors, potency, dose response, plasminogen activation absorbance, OD405 (AID 1914).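 Further: secreted streptokinase activity via plasminogen activation per viability signal from cell pellet.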 The format is functional, Streptococcus pyogenes M1 GAS.

The test system of assay [23] is Streptococcus sp. 'group A'. In words: growth inhibition of control SK(-) GAS strain, dose response, counter-screen for streptokinase expression inhibitor project, luminescence, kanamycin, BacTiterGlo, confirmation (AID 1900). It is filed as functional, organism-based.
Assay [24] deals with CHO. Nature of the assay: cytotoxicity in TLR9-MyD88 CHO cells, dose response, cytotoxicity control for TLR9-MyD88 binding inhibitor project, cell-based, luminescence (AID 588339).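 Further: CHO cells stably coexpressing TLR9 and MyD88 fusions from primary screen; compound exposure lasted 48 hours before viability readout.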 It is filed as functional, hamster. As to conditions: Cricetulus griseus.
Assay [25] in a line: Shn3 3'UTR reporter inhibitors, dose response, cell-based, Clone20 osteoblasts, firefly luciferase, cherry-picked (AID 624132).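 Further: firefly luciferase luminescence from reporter carrying the Shn3 3'UTR in osteoblasts.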 The format is functional.

Calls of active or inactive are those of the source.

Sequence of CAAX prenyl protease 2 (Q9Y256 whole entry): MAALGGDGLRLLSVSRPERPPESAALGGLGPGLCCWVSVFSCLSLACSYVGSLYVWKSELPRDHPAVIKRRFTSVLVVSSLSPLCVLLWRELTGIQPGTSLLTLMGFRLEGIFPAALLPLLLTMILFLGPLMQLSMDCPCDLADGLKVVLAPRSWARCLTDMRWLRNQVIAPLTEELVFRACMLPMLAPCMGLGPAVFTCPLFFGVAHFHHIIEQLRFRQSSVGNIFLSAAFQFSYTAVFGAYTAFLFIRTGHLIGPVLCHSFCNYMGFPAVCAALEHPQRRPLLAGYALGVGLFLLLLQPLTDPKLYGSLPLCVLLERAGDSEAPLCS
Sequence of Cytochrome P450 2C9 (P11712 whole entry): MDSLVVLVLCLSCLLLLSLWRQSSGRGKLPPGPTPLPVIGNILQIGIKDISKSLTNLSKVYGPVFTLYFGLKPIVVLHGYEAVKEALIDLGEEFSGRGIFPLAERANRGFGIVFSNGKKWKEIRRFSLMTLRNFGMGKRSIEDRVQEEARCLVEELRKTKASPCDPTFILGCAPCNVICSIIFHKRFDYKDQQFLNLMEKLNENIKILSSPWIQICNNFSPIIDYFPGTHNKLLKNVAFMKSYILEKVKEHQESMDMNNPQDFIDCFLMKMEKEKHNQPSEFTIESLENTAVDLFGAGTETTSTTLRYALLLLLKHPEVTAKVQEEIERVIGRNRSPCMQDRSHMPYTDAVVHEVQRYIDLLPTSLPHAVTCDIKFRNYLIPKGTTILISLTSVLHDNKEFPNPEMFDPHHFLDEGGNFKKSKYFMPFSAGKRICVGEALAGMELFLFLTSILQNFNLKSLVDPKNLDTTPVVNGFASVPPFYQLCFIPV

With `CCN(Cc1ccccc1)S(=O)(=O)c1cc(C(=O)NC(C)C2CC3CCC2C3)ccc1OC` (centres undefined), in assay [1], the EC50 was 8.76 µM (active).

With `CSCC[C@H](NC(=O)OC(C)(C)C)C(=O)N1CCC(C(=O)N[C@@H](C)C(=O)NC(C)c2ccccc2)CC1` (some centres undefined), the IC50 in assay [2] and in assay [3] was > 67.5 µM (inactive) each time.

Turning to `Cc1ccc(S(=O)(=O)Oc2cccc(N3C(=O)C4CC=CCC4C3=O)c2)cc1` (centres undefined), the IC50 in assay [2] is > 67.5 µM (inactive); in [3], > 67.5 µM (inactive); in [4], 49.6 µM (active).

As to `CCOC(=O)c1sc2nc(C3CC3)cc(-c3ccc(OC)cc3)c2c1N`, the AC50 in assay [5] was 0.642 µM (active); in assay [6] it was 14.8 µM (active).

Consider `O=C(C[n+]1cccc(NC(=O)c2ccccc2)c1)c1ccc(NC(=O)c2ccccc2)cc1`, for which the AC50 in [7] is 17.8 µM (inconclusive); in [8] it was 5.62 µM (inconclusive). Besides, in [1], the EC50 is 2.76 µM (active).

Consider `COc1ccc(C(NC(=O)Cc2ccccc2)c2ccc3cccnc3c2O)cc1OC` (centres undefined), for which the half-inhibitory concentration (IC50) in assay [9] is 2.61 µM (active); in [10], 11.2 µM (active); in [11], 2.24 µM (active).

As for `CCOC(=O)c1ccc(NC(=O)c2nc(S(=O)(=O)Cc3ccccc3)ncc2Cl)cc1`, the EC50 in assay [12] is 10.8 µM (active); in [14], 10.3 µM (active); in assay [15], 10 µM (active); in assay [21], > 120 µM (not active); in assay [22] it was 2.11 µM (active); in [23], 6.81 µM (active). In addition, the concentration at half-maximal activity (AC50) in assay [13] was 9.92 µM (active); in assay [16], 7.7 µM (active); in [17], 6.7 µM (active); in [18] it was 36.6 µM (active); in assay [20] it was 28.9 µM (active); in assay [25] it was 0.572 µM (active). Moreover, the half-inhibitory concentration (IC50) in assay [19] is 8.4 µM (active); in assay [24], 1.95 µM (active).

`Cc1nc(N2CCCCC2C)c2c(C)c(C(=O)Nc3ccccc3C(F)(F)F)sc2n1` (centres undefined): in assay [6], the AC50 is 6.65 µM (active).
